According to publication PMC11079024, “Identification of a family of species-selective complex I inhibitors as potential anthelmintics” (Nature Communications, 2024):
pIC50: −log10 of the molar value. Like-named read-outs stand apart in the source and are kept apart here.

How the values were obtained:
[1] = system: ben-1 mutant (ECA882) C. elegans; experiment: microbe, parasite or virus in culture; settings: Caenorhabditis elegans; for viability at 1 µM / viability at 2 µM / viability at 3.9 µM / viability at 15.6 µM / viability at 31.3 µM / viability at 62.5 µM / viability at 125 µM / viability at 250 µM / viability at 500 µM / viability at 1000 µM: read-out: C. elegans ben-1(e1880) development/viability
Outline: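 L1 larvae (~2 worms/μL in M9) in liquid NGM with 2-fold concentrated E. coli HB101, compound at 1% DMSO, 6 days at 20 °C shaking 165 rpm. Well images scored as summed worm-associated pixels, normalized to DMSO controls; relative viability averaged over at least three biological replicates.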

[2] = target: B. taurus (heart) complex I (Bos taurus, UniProt P03887+P17694+P42026); experiment: biochemical; type: biochemical; settings: for pIC50: B. taurus heart mitochondria, read-out: B. taurus Complex I IC50; for activity at 0.0001 µM / activity at 0.0005 µM / activity at 0.001 µM / activity at 0.0025 µM / activity at 0.005 µM / activity at 0.013 µM / activity at 0.025 µM / activity at 0.063 µM / activity at 0.125 µM / activity at 0.313 µM / activity at 0.625 µM / activity at 1.5 µM / activity at 3 µM / activity at 15 µM / activity at 37.5 µM / activity at 75 µM: read-out: B. taurus mitochondrial complex I activity; for Log IC50 B. taurus complex I: log10 of IC50 in µM, B. taurus mitochondria
B. taurus (heart) complex I, sequence (P03887 whole entry): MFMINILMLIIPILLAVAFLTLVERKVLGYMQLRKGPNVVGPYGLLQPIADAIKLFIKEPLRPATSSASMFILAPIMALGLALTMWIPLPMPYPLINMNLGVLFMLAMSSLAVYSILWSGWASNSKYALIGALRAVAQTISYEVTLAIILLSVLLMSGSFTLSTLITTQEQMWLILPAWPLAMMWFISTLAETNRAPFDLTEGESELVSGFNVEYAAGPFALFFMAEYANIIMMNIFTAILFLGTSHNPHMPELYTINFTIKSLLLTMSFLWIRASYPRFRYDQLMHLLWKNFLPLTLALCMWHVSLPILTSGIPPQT
B. taurus (heart) complex I, sequence (P17694 34-463): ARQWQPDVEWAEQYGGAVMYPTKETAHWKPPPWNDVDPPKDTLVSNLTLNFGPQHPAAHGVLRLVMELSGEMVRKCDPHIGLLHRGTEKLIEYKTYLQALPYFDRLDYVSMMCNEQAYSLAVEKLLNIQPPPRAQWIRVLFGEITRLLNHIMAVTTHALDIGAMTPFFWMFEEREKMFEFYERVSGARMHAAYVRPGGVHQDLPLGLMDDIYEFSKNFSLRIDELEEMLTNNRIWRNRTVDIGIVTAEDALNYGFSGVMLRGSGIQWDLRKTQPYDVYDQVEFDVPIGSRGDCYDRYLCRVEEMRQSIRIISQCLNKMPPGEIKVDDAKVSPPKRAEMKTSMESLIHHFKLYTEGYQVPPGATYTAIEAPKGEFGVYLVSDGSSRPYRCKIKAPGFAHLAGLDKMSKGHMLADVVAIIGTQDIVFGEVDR
B. taurus (heart) complex I, sequence (P42026 38-216): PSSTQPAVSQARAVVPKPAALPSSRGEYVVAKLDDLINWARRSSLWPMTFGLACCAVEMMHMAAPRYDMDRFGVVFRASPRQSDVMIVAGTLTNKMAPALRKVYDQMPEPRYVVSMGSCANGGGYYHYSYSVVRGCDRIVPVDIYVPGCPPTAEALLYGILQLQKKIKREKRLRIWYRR
Outline: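 Complex I activity followed as DCIP reduction (600 nm, 30 s reads, 15 min) with 80 μM NADH and 60 μM decylubiquinone in 25 mM KPi pH 7.5 containing 2 μM antimycin A and 2 mM KCN. Freeze-thawed mouse or bovine heart mitochondria at 0.2 mg/mL; initial-rate percent of solvent control, single-point 100 μM or dose-response.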

in vitro = settings: human
L1 wild-type C. elegans = settings: for Screen "Hit": hit = relative motility below 0.25 3 hours after removal of KCN; for KCN survival assay value relative to DMSO control, Mean: mean of replicates
[3] = read-out: C. elegans (ben-1) Development & Viability Assay LC50
[4] = read-out: C. elegans ben-1 log10 LC50 (converted)
[5] = estimated from fitted dose-response curves
[6] = HEK293 Cell Viability Assay LC50, HEK293 cells, estimated from fitted dose-response curves, mean of at least two biological replicates
[7] = HEK293 cells (Flp-In-293), HEK293 viability
[8] = Dose 0.2 µM, mean of at least three biological replicates

Cc1ccc(SCCCn2cnc3ccccc32)cc1 [Compound 7926035]
LC50 [1, 3]: 69.8 µM | viability at 1 µM [1]: 94.4% | viability at 2 µM [1]: 87.2% | viability at 3.9 µM [1]: 86.3% | viability at 15.6 µM [1]: 91.5% | viability at 31.3 µM [1]: 76.7% | viability at 62.5 µM [1]: 57.7% | viability at 125 µM [1]: 5.4% | viability at 250 µM [1]: 2.6% | viability at 500 µM [1]: 3.4% | viability at 1000 µM [1]: 5.6% | LC50 [1, 4]: 69.8 µM | pIC50 [2, 5]: 5.44 | activity at 0.0001 µM [2]: 101% | activity at 0.0005 µM [2]: 105% | activity at 0.001 µM [2]: 99.3% | activity at 0.0025 µM [2]: 106% | activity at 0.005 µM [2]: 102% | activity at 0.013 µM [2]: 101% | activity at 0.025 µM [2]: 100% | activity at 0.063 µM [2]: 98.8% | activity at 0.125 µM [2]: 97% | activity at 0.313 µM [2]: 98.3% | activity at 0.625 µM [2]: 78.8% | activity at 1.5 µM [2]: 78.8% | activity at 3 µM [2]: 41.2% | activity at 15 µM [2]: 10% | activity at 37.5 µM [2]: 2.81% | activity at 75 µM [2]: 1.94% | Log IC50 B. taurus complex I [2]: 0.56 µM | CC50 at 2 days (in vitro; [6]): 71.4 µM | viability at 2 days, 3.13 µM (in vitro; HEK293 cells (Flp-In-293), HEK293 viability, Dose 3.13 µM): 90.8% | viability at 2 days, 6.25 µM (in vitro; [7]): 96.6% | viability at 2 days, 12.5 µM (in vitro; [7]): 98.4% | viability at 2 days, 25 µM (in vitro; [7]): 97.6% | viability at 2 days, 50 µM (in vitro; [7]): 65.6% | viability at 2 days, 100 µM (in vitro; [7]): 30.4% | Screen "Hit" (L1 wild-type C. elegans; 50 μM, […]): Y (hits were identified as compounds that reduced relative motility below 0.25 (75% reduction)) | C. elegans KCN Survival (L1 wild-type C. elegans; [8]): 0.990 | C. elegans KCN Survival (L1 wild-type C. elegans; Dose 0.39 µM): 0.961 | C. elegans KCN Survival (L1 wild-type C. elegans; Dose 1.56 µM): 0.929 | C. elegans KCN Survival (L1 wild-type C. elegans; Dose 3.13 µM): 0.707 | C. elegans KCN Survival (L1 wild-type C. elegans; Dose 6.25 µM): 0.388 | C. elegans KCN Survival (L1 wild-type C. elegans; Dose 12.5 µM): 0.123 | C. elegans KCN Survival (L1 wild-type C. elegans; Dose 25 µM): 0.118 | C. elegans KCN Survival (L1 wild-type C. elegans; Dose 50 µM): 0.139 | C. elegans KCN Survival (L1 wild-type C. elegans; Dose 100 µM): 0.184

CC(C)Oc1cccc(OCCn2cnc3ccccc32)c1 [Compound 7926496]
LC50 [1, 3]: 388 µM | viability at 1 µM [1]: 86.1% | viability at 2 µM [1]: 87.5% | viability at 3.9 µM [1]: 87.4% | viability at 15.6 µM [1]: 90.6% | viability at 31.3 µM [1]: 95.8% | viability at 62.5 µM [1]: 91.5% | viability at 125 µM [1]: 81% | viability at 250 µM [1]: 86.3% | viability at 500 µM [1]: 13.9% | viability at 1000 µM [1]: 3.6% | LC50 [1, 4]: 388 µM | pIC50 [2]: 5.66 | activity at 0.0001 µM [2]: 89.9% | activity at 0.0005 µM [2]: 91.2% | activity at 0.001 µM [2]: 91.7% | activity at 0.0025 µM [2]: 85.5% | activity at 0.005 µM [2]: 94.5% | activity at 0.013 µM [2]: 90.6% | activity at 0.025 µM [2]: 91.4% | activity at 0.063 µM [2]: 86% | activity at 0.125 µM [2]: 80.2% | activity at 0.313 µM [2]: 76.3% | activity at 0.625 µM [2]: 69.4% | activity at 1.5 µM [2]: 53.2% | activity at 3 µM [2]: 36% | activity at 15 µM [2]: 9.56% | activity at 37.5 µM [2]: 1.81% | activity at 75 µM [2]: 1.89% | Log IC50 B. taurus complex I [2]: 0.34 µM | CC50 at 2 days (in vitro): 94.5 µM | viability at 2 days, 6.25 µM (in vitro; [7]): 97.4% | viability at 2 days, 12.5 µM (in vitro; [7]): 96.9% | viability at 2 days, 25 µM (in vitro; [7]): 97.3% | viability at 2 days, 50 µM (in vitro; [7]): 85.9% | viability at 2 days, 100 µM (in vitro; [7]): 43.4% | viability (in vitro; HEK293 viability, Dose 3.13 µM): 91.5% | Screen "Hit" (L1 wild-type C. elegans; 50 μM, […]): Y (hits were identified as compounds that reduced relative motility below 0.25 (75% reduction)) | C. elegans KCN Survival (L1 wild-type C. elegans; [8]): 1.017 | C. elegans KCN Survival (L1 wild-type C. elegans; Dose 0.39 µM): 1.017 | C. elegans KCN Survival (L1 wild-type C. elegans; Dose 1.56 µM): 1.072 | C. elegans KCN Survival (L1 wild-type C. elegans; Dose 3.13 µM): 1.070 | C. elegans KCN Survival (L1 wild-type C. elegans; Dose 6.25 µM): 1.047 | C. elegans KCN Survival (L1 wild-type C. elegans; Dose 12.5 µM): 0.937 | C. elegans KCN Survival (L1 wild-type C. elegans; Dose 25 µM): 0.437 | C. elegans KCN Survival (L1 wild-type C. elegans; Dose 50 µM): 0.153 | C. elegans KCN Survival (L1 wild-type C. elegans; Dose 100 µM): 0.199

Cc1nc2ccccc2n1Cc1ccc(Cl)cc1 [STK697993]
LC50 [1, 3]: 40.1 µM | LC50 [1, 4]: 40.1 µM | Complex I IC50 ~Fold Change ([2]; B. taurus complex I IC50 relative to C. elegans complex I IC50): 2.72 | pIC50 [2, 5]: 6.52 | B. taurus: C. elegans IC50 Fold Change (Complex I IC50 ~Fold Change) ([2]; complex I IC50 ratio bovine heart / C. elegans): 2.72 | IC50 Fold change ([2]; fold-change in IC50 between B. taurus and C. elegans complex I): 2.72 | Log IC50 B. taurus complex I [2]: -0.52 µM | CC50 at 2 days (in vitro; HEK293 Cell Viability Assay LC50): > 100 µM | Screen "Hit" (L1 wild-type C. elegans; 50 μM compound, […]): Y (hits were identified as compounds that reduced relative motility below 0.25 (75% reduction)) | Relative Motility (L1 wild-type C. elegans; 50 μM compound, […], worm motility 3 hours after removal of KCN, relative to DMSO controls, single biological replicate): 0.000 | KCN survival assay value relative to DMSO control, Mean (L1 wild-type C. elegans; dose 3.1 µM, […]): 1.037 | KCN survival assay value relative to DMSO control, Mean (L1 wild-type C. elegans; dose 6.3 µM, […]): 1.001 | KCN survival assay value relative to DMSO control, Mean (L1 wild-type C. elegans; dose 12.5 µM, […]): 0.717 | KCN survival assay value relative to DMSO control, Mean (L1 wild-type C. elegans; dose 25 µM, […]): 0.059 | KCN survival assay value relative to DMSO control, Mean (L1 wild-type C. elegans; dose 50 µM, […]): 0.046

CCn1c(C(C)c2ccc(CC(C)C)cc2)nc2ccccc21 (stereo not shown) [STK951902]
LC50 [1, 3]: 644 µM | LC50 [1, 4]: 644 µM | pIC50 [2, 5]: 4.90 | Log IC50 B. taurus complex I [2]: 1.10 µM | CC50 at 2 days (in vitro; [6]): 31.7 µM | Screen "Hit" (L1 wild-type C. elegans; 50 μM compound, […]): Y (hits were identified as compounds that reduced relative motility below 0.25 (75% reduction))

CC(C)Cc1ccc(C(C)c2nc3ccccc3n2C(C)C)cc1 (stereo not shown) [STK951903]
LC50 [1, 3]: 731 µM | LC50 [1, 4]: 731 µM | pIC50 [2]: 4.83 | Log IC50 B. taurus complex I [2]: 1.17 µM | CC50 at 2 days (in vitro; HEK293 Cell Viability Assay LC50, HEK293 cells, estimated from fitted dose-response curves): 29.2 µM | Screen "Hit" (L1 wild-type C. elegans; 50 μM compound, […]): Y (hits were identified as compounds that reduced relative motility below 0.25 (75% reduction))

C=CCn1c(C(C)c2ccc(CC(C)C)cc2)nc2ccccc21 (stereo not shown) [STL020755]
LC50 [1, 3]: 285 µM | LC50 [1, 4]: 284 µM | pIC50 [2, 5]: 4.77 | Log IC50 B. taurus complex I [2]: 1.23 µM | CC50 at 2 days (in vitro; [6]): 49.5 µM | Screen "Hit" (L1 wild-type C. elegans; 50 μM compound, […]): Y (hits were identified as compounds that reduced relative motility below 0.25 (75% reduction))

c1ccc(CCCCCCCCCCc2nc3ccccc3[nH]2)cc1 [STL442376]
LC50 [1, 3]: 640 µM | LC50 [1, 4]: 640 µM | pIC50 [2, 5]: 5.48 | Log IC50 B. taurus complex I [2]: 0.52 µM | CC50 at 2 days (in vitro; [6]): < 6.25 µM | Screen "Hit" (L1 wild-type C. elegans; 50 μM compound, […]): Y (hits were identified as compounds that reduced relative motility below 0.25 (75% reduction))
